Measured values taken from US20050009748A1, “Compositions for delivering peptide YY and PYY agonists” (Emisphere Technologies, Inc., priority 2003, published 2005).
Where “and” joins values, the source holds several entries; their conditions need not be identical. Equal values may be shown once.

How the values were obtained:
[1] = Liquid oral delivery of PYY[3-36] in rats (oral gavage, serum PYY[3-36] radioimmunoassay); type: in vivo, Male Sprague-Dawley rats; details: oral gavage solution, Delivery Agent 200 mg/kg, PYY[3-36] 0.3 mg/kg, 1 ml/kg
Description: SNAC monosodium salt, solid was dissolved in water. The pH of this solution was close to pH 7.5, so no pH adjustments were done. […] The final pH of these solutions was 7.5.
The pH was then lowered to 7.7 by adding HCl (5N). […] The final pH of these solutions varied between 7.5 and 7.6.
Each delivery agent compound (as the free acid or monosodium salts) was dissolved in water. The pH was adjusted to approximately 7.5 by adding HCl (5N) and NaOH (5N) as needed. […] The final pH of these solutions was approximately 7.5.
The typical dosing and sampling protocols were as follows. Male Sprague-Dawley rats weighing between 240-320 g were fasted up to a maximum 24 hours before the experiments and administered ketamine (44 mg/kg) and thorazine (1.5 mg/kg) by intramuscular injection before the test article administration. Afterwards, the anesthetized animals were administered the test article by oral gavage. A dosing group of five animals was administered one of the dosing solutions. For oral gavage (PO), an 11 cm Rusch 8 French catheter was adapted to a 1 ml syringe with a pipette tip. The syringe was filled with dosing solution by drawing the solution through the catheter, which was then wiped dry. The catheter was placed down the esophagus leaving 1 cm of tubing past the incisors. The dosing solution was administered by pressing the syringe plunger.
Blood samples were collected serially from the tail artery, or by cardiac puncture, typically at time=0, 15, 30, 45, 60 and 90 minutes. […] Results from the animals in each group were averaged for each time point.

[2] = Solid oral delivery of PYY[3-36] in feed restricted rats (serum PYY radioimmunoassay); type: in vivo, Male Sprague Dawley rats; details: 1 tablet per animal
Description: An oral dosing tube was used.
Blood samples were collected serially from the tail artery, by cardiac puncture, or as in this case by retro-orbitally, typically at time=0, 15, 30, 60 and 90 minutes.

[3] = rats, end of 7-day study, food found in the stomachs
Description: Food was removed prior to dosing and returned 30 minutes after dosing.
An oral dosing tube was used. The dosing tube was inserted into the rat's mouth and carefully threaded down the rats pharynx and esophagus about 8 cm to about 15 cm depending on the weight of the rat (typically about 11 cm). The solid dosage form was delivered into the distal esophagus and/or stomach by pressing the plunger of the oral dosing tube.
Food consumption was determined every 24 hours from the weight difference between the food given to and food left over by each rat. The body weight of each rat was determined every 24 hours.

[4] = Delivery Agent 100 mg/kg, PYY[3-36] 0.3 mg/kg
[5] = Delivery Agent 50 mg/kg, PYY[3-36] 0.3 mg/kg

## COc1ccc(C(=O)NCCCCCCCC(=O)O)c(O)c1 [Delivery Agent 4, 8-(2-hydroxy-4-methoxybenzoylamino)octanoic acid]
[1]
  Mean Peak Serum [PYY(3-36)] (pg/ml) ± SD: 830.246 ± 71.382 pg/mL
[2]; [4]
  Mean serum peak of PYY (pg/ml) ± SD: 1821.82 ± 1513.84 pg/mL

## O=C(O)CCCCCCCNC(=O)c1cc(Cl)ccc1O [Delivery Agent 7, 8-(2-hydroxy-5-chlorobenzoylamino)octanoic acid]
[1]
  Mean Peak Serum [PYY(3-36)] (pg/ml) ± SD: 663.472 ± 135.394 pg/mL
[2]; [5]
  Mean serum peak of PYY (pg/ml) ± SD: 725.96 ± 110.78 pg/mL
[2]; Delivery Agent 100 mg/kg, PYY[3-36] 0 mg/kg (delivery agent alone)
  Mean serum peak of PYY (pg/ml) ± SD: 14.35 ± 19.71 pg/mL
[2]; [4]
  Mean serum peak of PYY (pg/ml) ± SD: 1064.18 ± 363.8 pg/mL

## PYY[3-36]
[3]
  effect on gastric emptying: no effect on gastric emptying

## O=C(O)CCCCCCCNC(=O)c1c(O)cccc1O [Delivery Agent 5, 8-(2,6-dihydroxybenzoylamino)octanoic acid]
[1]
  Mean Peak Serum [PYY(3-36)] (pg/ml) ± SD: 800.318 ± 40.61 pg/mL

## Cc1ccc(O)c(C(=O)NCCCCCCCC(=O)O)c1 [Delivery Agent 9, 8-(2-hydroxy-5-methylbenzoylamino)octanoic acid]
[1]
  Mean Peak Serum [PYY(3-36)] (pg/ml) ± SD: 732.912 ± 266.578 pg/mL
[2]; [4]
  Mean serum peak of PYY (pg/ml) ± SD: 1309.8 ± 836.33 pg/mL

## O=C(O)CCCCCCCNC(=O)c1cc(F)ccc1O [Delivery Agent 10, 8-(2-hydroxy-5-fluorobenzoylamino)octanoic acid]
[1]
  Mean Peak Serum [PYY(3-36)] (pg/ml) ± SD: 846.416 ± 55.993 pg/mL
[2]; [5]
  Mean serum peak of PYY (pg/ml) ± SD: 897.18 ± 549.5 pg/mL

## O=C(O)CCCCCCCOc1ccc(O)cc1 [Delivery Agent 17, 8-(4-hydroxyphenoxy)octanoate]
[2]; Delivery Agent 100 mg/kg, PYY[3-36] 0.3 mg/kg, listed as 17
  Mean serum peak of PYY (pg/ml) ± SD: 897.18 ± 549.5 pg/mL

## O=C(O)CCCCCCCOc1ccc(O)cc1 [Delivery Agent 18, 8-(4-hydroxyphenoxy)octanoate]
[2]; [5]
  Mean serum peak of PYY (pg/ml) ± SD: 940.33 ± 1090.65 pg/mL
[2]; [4]
  Mean serum peak of PYY (pg/ml) ± SD: 1216.13 ± 661.31 pg/mL

## N#Cc1ccccc1OCCCCCC(=O)O [Delivery Agent 14, 6-(2-cyanophenoxy)hexanoic acid]
[1]
  Mean Peak Serum [PYY(3-36)] (pg/ml) ± SD: 913.536 ± 33.688 pg/mL and 1083.38 ± 78.878 pg/mL

## O=C(O)CCCCCCCOc1ccc(O)cc1 [Delivery Agent 13, 8-(4-hydroxyphenoxy)octanoic acid]
[1]
  Mean Peak Serum [PYY(3-36)] (pg/ml) ± SD: 826.48 ± 379.12 pg/mL

## O=C(O)CCCCCCCNC(=O)c1cc(Br)ccc1O [Delivery Agent 6, 8-(2-hydroxy-5-bromobenzoylamino)octanoic acid]
[1]
  Mean Peak Serum [PYY(3-36)] (pg/ml) ± SD: 812.946 ± 53.616 pg/mL

## O=C(O)CCCCCCCOc1cccc(O)c1 [Delivery Agent 12, 8-(3-hydroxyphenoxy)octanoic acid]
[1]
  Mean Peak Serum [PYY(3-36)] (pg/ml) ± SD: 845.682 ± 69.846 pg/mL and 1047.46 ± 36.93 pg/mL

## O=C(O)CCCCCCCNC(=O)c1cc(I)ccc1O [Delivery Agent 8, 8-(2-hydroxy-5-iodobenzoylamino)octanoic acid]
[1]
  Mean Peak Serum [PYY(3-36)] (pg/ml) ± SD: 276.82 ± 425.45 pg/mL
